Results: patent publication US7045343B2, “Sterilization indicator test packs” (3M Innovative Properties Company, priority 1998, dated 2006)

What was measured:
[1] = system: enzyme associated with Bacillus stearothermophilus spores; assay: Rapid enzyme fluorescence readout of dual rapid readout indicators after prevacuum steam sterilization; type: biochemical; details: 4-pulse prevacuum steam 121° C.
In short: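 This is a rapid enzyme test in which spore-associated enzyme activity is detected by fluorescence. Spores coated with chemicals were dried on 5×25 mm paper strips for 16 hours at 37° C. They were loaded into indicators that carried 4-methylumbelliferyl-alpha-D-glucoside substrate, with untreated spores serving as controls. After 4-pulse prevacuum steam exposure at 121° C, with vacuum at 0.075–0.085 bar, the substrate ampoules were crushed and the indicators were incubated at 60° C and read with an autoreader.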

[2] = system: Bacillus stearothermophilus spores; assay: Spore outgrowth (color change) of indicators after prevacuum steam sterilization; type: cell-based; details: 4-pulse prevacuum steam 121° C.
In short: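 Self-contained indicators held coated spore strips, a polypropylene microfiber barrier and a crushable inner container. That container held peptone, L-alanine, 4-methylumbelliferyl-alpha-D-glucoside and bromocresol purple at pH 7.6. Indicators sat in metal trays in a Getinge sterilizer running pulses of 0.075–0.085 bar vacuum and steam to 1.00 bar at 121° C. Incubation at 60° C followed, and yellow color at 168 hours scored spore outgrowth.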

[3] = Example 4, 50 mg/ml coating, 7–18 min
[4] = Example 4, 100 mg/ml coating, 7–18 min
[5] = Example 1, 10 mg/ml coating, 7–13 min
[6] = Example 1, 20 mg/ml coating, 7–13 min
[7] = Example 1, 40 mg/ml coating, 7–13 min
[8] = Example 1, 80 mg/ml coating, 7–13 min
[9] = Example 1, 100 mg/ml coating, 7–13 min
[10] = Example 3, 100 mg/ml coating, 7–15 min

Decaglyceryl Decaoleate
FLUORESCENCE - PERCENT POSITIVE 1 HR [1, 3]: 0%
FLUORESCENCE - PERCENT POSITIVE 2 HR [1, 3]: 19.4%
FLUORESCENCE - PERCENT POSITIVE 3 HR [1, 3]: 29.0%
FLUORESCENCE - PERCENT POSITIVE 4 HR [1, 3]: 41.9%
FLUORESCENCE - PERCENT POSITIVE 1 HR [1, 4]: 16.7%
FLUORESCENCE - PERCENT POSITIVE 2 HR [1, 4]: 20%
FLUORESCENCE - PERCENT POSITIVE 3 HR [1, 4]: 30%
FLUORESCENCE - PERCENT POSITIVE 4 HR [1, 4]: 50%
NO. GROWTH POSITIVE 168 HR [2, 3]: 31
NO. GROWTH POSITIVE 168 HR [2, 4]: 30

Decaglyceryl Monostearate
accuracy of sterilization indicators compared to indicators made with untreated spores [1]: improved
accuracy of sterilization indicators compared to indicators made with untreated spores ([1]; listed as decaglycerol monostearate): improved accuracy
FLUORESCENCE - PERCENT POSITIVE 1 HR [1, 5]: 0%
FLUORESCENCE - PERCENT POSITIVE 2 HR [1, 5]: 41.0%
FLUORESCENCE - PERCENT POSITIVE 3 HR [1, 5]: 74.4%
FLUORESCENCE - PERCENT POSITIVE 4 HR [1, 5]: 82.1%
FLUORESCENCE - PERCENT POSITIVE 5 HR [1, 5]: 87.2%
FLUORESCENCE - PERCENT POSITIVE 6 HR [1, 5]: 89.7%
FLUORESCENCE - PERCENT POSITIVE 1 HR [1, 6]: 0%
FLUORESCENCE - PERCENT POSITIVE 2 HR [1, 6]: 17.6%
FLUORESCENCE - PERCENT POSITIVE 3 HR [1, 6]: 73.5%
FLUORESCENCE - PERCENT POSITIVE 4 HR [1, 6]: 91.2%
FLUORESCENCE - PERCENT POSITIVE 5 HR [1, 6]: 100%
FLUORESCENCE - PERCENT POSITIVE 6 HR [1, 6]: 100%
FLUORESCENCE - PERCENT POSITIVE 1 HR [1, 7]: 0%
FLUORESCENCE - PERCENT POSITIVE 2 HR [1, 7]: 69.5%
FLUORESCENCE - PERCENT POSITIVE 3 HR [1, 7]: 91.5%
FLUORESCENCE - PERCENT POSITIVE 4 HR [1, 7]: 100%
FLUORESCENCE - PERCENT POSITIVE 5 HR [1, 7]: 100%
FLUORESCENCE - PERCENT POSITIVE 6 HR [1, 7]: 100%
FLUORESCENCE - PERCENT POSITIVE 1 HR [1, 8]: 0%
FLUORESCENCE - PERCENT POSITIVE 2 HR [1, 8]: 85.5%
FLUORESCENCE - PERCENT POSITIVE 3 HR [1, 8]: 96.4%
FLUORESCENCE - PERCENT POSITIVE 4 HR [1, 8]: 100%
FLUORESCENCE - PERCENT POSITIVE 5 HR [1, 8]: 100%
FLUORESCENCE - PERCENT POSITIVE 6 HR [1, 8]: 100%
FLUORESCENCE - PERCENT POSITIVE 1 HR [1, 9]: 8.8%
FLUORESCENCE - PERCENT POSITIVE 2 HR [1, 9]: 85.3%
FLUORESCENCE - PERCENT POSITIVE 3 HR [1, 9]: 100%
FLUORESCENCE - PERCENT POSITIVE 4 HR [1, 9]: 100%
FLUORESCENCE - PERCENT POSITIVE 5 HR [1, 9]: 100%
FLUORESCENCE - PERCENT POSITIVE 6 HR [1, 9]: 100%
FLUORESCENCE - PERCENT POSITIVE 1 HR [1, 10]: 0%
FLUORESCENCE - PERCENT POSITIVE 2 HR [1, 10]: 100.0%
FLUORESCENCE - PERCENT POSITIVE 3 HR [1, 10]: 100.0%
FLUORESCENCE - PERCENT POSITIVE 4 HR [1, 10]: 100.0%
FLUORESCENCE - PERCENT POSITIVE 1 HR [1, 3]: 13.8%
FLUORESCENCE - PERCENT POSITIVE 2 HR [1, 3]: 86.2%
FLUORESCENCE - PERCENT POSITIVE 3 HR [1, 3]: 100.0%
FLUORESCENCE - PERCENT POSITIVE 4 HR [1, 3]: 100.0%
NO. GROWTH POSITIVE 168 HR [2, 5]: 39
NO. GROWTH POSITIVE 168 HR [2, 6]: 34
NO. GROWTH POSITIVE 168 HR [2, 7]: 59
NO. GROWTH POSITIVE 168 HR [2, 8]: 55
NO. GROWTH POSITIVE 168 HR [2, 9]: 34
GROWTH POSITIVE 168 HR [2, 10]: 20
NO. GROWTH POSITIVE 168 HR [2, 3]: 29
